Assay results as given in patent publication US20140309221A1, “METHOD OF INHIBITING HAMARTOMA TUMOR CELLS” (DANA-FARBER CANCER INSTITUTE, INC., priority 2011, published 2014).
Entries after “also recorded” stand apart in the source; their conditions may differ.

Legend:
[1] = system: PHTS symptoms in K14-cre-Pten f/f mice; assay: Administration to K14-cre-Pten f/f mice with fully developed PHTS: relief of symptoms; format: in vivo
Protocol: (§1) 4-(Trifluoromethyl)-5-(2,6-dimorpholinopyrimidin-4-yl)pyridin-2-amine powder was dissolved in 1 volume of NMP (1-methyl-2-pyrrolidone). After dissolution (if needed, in warm water), add 9 volumes of PEG300. The final ratio is: NMP 10%/PEG300 90%.
Pten f/f mice (Lesche, R., et al., Cre/loxP-mediated inactivation of the murine Pten tumor suppressor gene. Genesis, 2002. 32(2): 148-9) were crossed with K14-cre mice (Jonkers, J., et al., Synergistic tumor suppressor activity of BRCA2 and p53 in a conditional mouse model for breast cancer. Nat Genet, 2001. 29(4): 418-25) to generate K14-Cre Pten f/f mice in which the floxed Pten allele is deleted specifically in the keratinocytes by the K14-driven Cre recombinase. These mice were further crossed with p110a f/f (Zhao, J. J., et al., The p110 alpha isoform of PI3K is essential for proper growth factor signaling and oncogenic transformation. Proc Natl Acad Sci USA, 2006. 103(44): 16296-300) and p110b f/f mice (Jia, S., et al., Essential roles of PI(3)K-p110beta in cell growth, metabolism and tumorigenesis. Nature, 2008) to generate K14-cre Pten f/f, K14-cre Pten f/f; p110a f/f, K14-cre Pten f/f; p110b f/f, and K14-cre-Pten f/f; p110a f/f; p110b f/f mice. Keratinocyte-specific deletion of Pten results in multiple dermal lesions in the K14-cre Ptenf/f mice that resemble multiple skin hamartomas of PHTS. […]

[2] = system: PHTS symptoms in K14-cre-Pten f/f mice; assay: Early administration: prevention of PHTS symptom development in K14-cre-Pten f/f mice; format: in vivo; conditions: 25 mg/kg daily by oral gavage beginning at 3 weeks of age
Protocol: as §1
Pten f/f mice (Lesche, R., et al., Cre/loxP-mediated inactivation of the murine Pten tumor suppressor gene. Genesis, 2002. 32(2): 148-9) were crossed with K14-cre mice (Jonkers, J., et al., Synergistic tumor suppressor activity of BRCA2 and p53 in a conditional mouse model for breast cancer. Nat Genet, 2001. 29(4): 418-25) to generate K14-Cre Pten f/f mice in which the floxed Pten allele is deleted specifically in the keratinocytes by the K14-driven Cre recombinase. […]
K14-cre-Pten f/f mice were treated daily with 25 mg/kg 4-(trifluoromethyl)-5-(2,6-dimorpholinopyrimidin-4-yl)pyridin-2-amine by oral gavage beginning at 3 weeks of age and the development of PHTS symptoms monitored. […]

`Nc1cc(C(F)(F)F)c(-c2cc(N3CCOCC3)nc(N3CCOCC3)n2)cn1` [COMPOUND A, 4-(trifluoromethyl)-5-(2,6-dimorpholinopyrimidin-4-yl)pyridin-2-amine] was tested, and the “relief of PHTS symptoms” value ([1]; K14-cre-Pten f/f mice with fully developed PHTS (12-14 weeks of age), 45 mg/kg daily by oral gavage for 4 weeks, 45 mg/kg) was “dramatically relieved the PHTS symptoms; also recorded: completely reversed the phenotype of PHST”, the “PHTS symptoms at the end of the 4-week treatment” value ([1]; K14-cre-Pten f/f mice with fully developed PHTS, 45 mg/kg daily by oral gavage, end of 4 weeks) was “substantially or completely reduced” and the “development of PHTS symptoms (PHTS free survival)” value ([2]; n=12) was “remained free of PHTS symptoms”. For the same molecule, the “development of PHTS symptoms (PHTS free survival)” value ([2]; n=12, listed as 4-(trifluoromethyl)-5-(2,6-dimorpholinopyrimidin-4-yl)pyridin-2-amine) was “remained free of PHTS symptoms; also recorded: entirely blocked appearance of PHTS”.
